Source: ChEMBL document CHEMBL1157539, “Thousands of chemical starting points for antimalarial lead identification” (Nature, 2010)

Test system: Plasmodium falciparum
Experiment: GSK_TCMDC: Inhibition of Plasmodium falciparum 3D7 in whole erythrocytes, using parasite LDH activity as an index of growth.
Assay type: functional, organism-based
Settings: Plasmodium falciparum, 3D7

| SMILES | XC50 [nM] |
| --- | --- |
| O=C(Nc1ccc(Oc2cccnc2)cc1)C1CCN(Cc2cc(Cl)ccc2O)CC1 | 1350 |
| O=C(NC1CCN(CCC(NC(=O)c2ccccc2)c2ccc(Cl)c(Cl)c2)CC1)c1ccc(Cl)cc1 (stereo unspecified) | 1070 |
| CC(C)Cn1c(Sc2ccc(C#N)c([N+](=O)[O-])c2)nnc1-c1ccccc1Cl | 901 |
| CCN(CC)CCN(Cc1ccc(-c2ccc(C(F)(F)F)cc2)cc1)C(=O)Cn1c(CCc2cccc(F)c2F)nc(=O)c2cccnc21 | 728 |
| COc1ccc(C(=O)CCC(=O)N(Cc2ccc(-c3ccc(CNCc4cccnc4)cn3)cc2)C2CCN(Cc3ccccc3)CC2)cc1F | 978 |
| O=C(Cn1nc(Br)nc1[N+](=O)[O-])NCC1CCCCC1 | 1100 |
| C=C[C@H]1CN(CCCCCCC)CC[C@H]1CCNc1ccnc2ccc(OC)cc12 | 61.8 |
| CS(=O)(=O)c1ccc(-c2nc(NCC3CCCCC3)cc(C(F)(F)F)n2)cc1 | 667 |
| O=C(NC1CCN(Cc2ccccc2O)C1)c1ccc(-c2ccccc2)cc1 (stereo unspecified) | 838 |
| O=C(c1ccc(Cl)cc1)N1CCCC(C(=O)N(Cc2nnc(-c3ccccc3Cl)o2)C2CC2)C1 (stereo unspecified) | 227 |
| CCc1c(C)nc(-n2nc(C)cc2NC(=O)CCc2ccccc2)[nH]c1=O | 752 |
| CCC(C)NC(=O)CN1CN(c2ccccc2)C2(CCN(C(=O)c3ccc(-c4ccccc4)cc3)CC2)C1=O (stereo unspecified) | 128 |
| CC1CCCN(Cc2c(O)ccc3c(O)c(-c4nc5ccccc5s4)c(=N)oc23)C1 (stereo unspecified) | 140 |
| COc1ccc(C(=O)Nc2cc(Br)c3c(c2)CNCC3)cc1Br | 915 |
| CCOC(=O)C1=C(C)NC2=C(C(=O)C(C(=O)OC)C(C)C2)C1c1cc(Br)c(OCC)c(OC)c1 (stereo unspecified) | 701 |
| CN(C)CCCNCc1ccc(-c2ccc(C(F)(F)F)cc2)cc1 | 873 |
| CC(C)c1cc2c(cc1O)C(Cc1ccccc1Cl)N(C)CC2 (stereo unspecified) | 732 |
| CC1CCN(CC[C@H]2CCCN2S(=O)(=O)c2cccc(NC(=O)c3ccc(-c4ccccc4)cc3)c2)CC1 | 1260 |
| O=C(NCCCCN1CCC(c2ccc3c(c2O)CCCC3)CC1)c1ccc(NC(=O)c2ccc(Cl)cc2)cc1 | 243 |
| CN(CCC1CCN(C(=O)/C=C/c2ccc(Cl)c(Cl)c2)CC1)C1CCC(c2c[nH]c3ccccc23)CC1 (stereo unspecified) | 774 |
| CCc1ccc(-c2nc3cc(NC(=O)c4ccc([N+](=O)[O-])o4)ccc3o2)cc1 | 250 |
| Nc1c2c(nc3ccc(NC(=O)CCCCCCc4ccccc4)cc13)CCCC2 | 248 |
| O=C(NCCc1ccccc1F)c1ccc(N2CCN(c3ccncc3)CC2)cn1 | 1080 |
| NC(=O)c1cccc(CNCc2ccc(-c3cccc(-c4nc5ccccc5[nH]4)c3)cc2)c1 | 592 |

| SMILES | XC50 [nM] |
| --- | --- |
| Cc1cccc(C)c1OC(=O)C(C)C(O)C1(Sc2ccccc2)CCN(C)CC1 (stereo unspecified) | 734 |
| Cc1[nH]c(C)c(-c2ccc(Oc3ccc(O)cc3)cc2)c(=O)c1Cl | 1040 |
| CCN(CC)CCCC(C)Nc1ccnc2ccc(OC)cc12 (stereo unspecified) | 822 |
| O=C(Cc1ccsc1)NCC(c1ccccc1Cl)c1c[nH]c2ccccc12 (stereo unspecified) | 950 |
| CN1CCN(C(C(=O)NCc2cc(Cl)cc(Cl)c2)c2ccc(Nc3cccc(C(F)(F)F)c3)cc2)CC1 (stereo unspecified) | 1120 |
| O=C(NCC1CCC(C(=O)NCCc2ccc(Cl)c(Cl)c2)CC1)c1ccc(O)c(-c2ccc(Cl)c(Cl)c2)c1 (stereo unspecified) | 895 |
| O=C(Nc1ccc(C(=O)Oc2ccc(-c3ccccc3)cc2)cc1)N[C@@H](Cc1ccc(O)cc1)C(=O)NC1CCN(Cc2ccc(O)cc2)C1 (stereo partly specified) | 803 |
| COC(=O)c1ccc(CC(C)NCC(O)c2cccc(OC(F)(F)F)c2)cc1 (stereo unspecified) | 863 |
| Cc1nnc2c(NC(=O)NC3CCCC3)cc3cc(-c4ccc(CN5CCCCC5)cc4)ccc3n12 | 948 |
| Cc1noc(C)c1-c1ccc(C(=C2CCCCCC2)c2ccc(O)cc2)cc1 | 189 |
| COc1ccc(NC(=O)Nc2ccc(-c3cccc(-c4nc5cccc(C)c5[nH]4)c3)cc2)cc1 | 142 |
| O=C(CCc1cccnc1)Nc1cccc(-c2ccc(-c3nc4cc(C(F)(F)F)ccc4[nH]3)s2)c1 | 953 |
| O=C(/C=C/c1ccc(Cl)c(Cl)c1)N1CCC(CN2CCC(c3nc4ccccc4n3CCCO)CC2)CC1 | 839 |
| COc1cc(F)c2nccc([C@@H](O)CN3CCC(NCc4ccc5c(n4)NC(=O)CS5)CC3)c2c1 | 560 |
| CC(C)(CNC(=O)[C@@H]1CCCN(CCOc2ccc(Cl)cc2)C1)c1nc(-c2ccc(Cl)c(O)c2)c(-c2ccncc2)[nH]1 | 881 |
| CN1CCC(Oc2ccc(CN3CC[C@H](NC(=O)c4ccc(Cl)c(Cl)c4)C3)c3ccccc23)C1 (stereo partly specified) | 876 |
| O=C(Nc1ccc2c(c1)CN(Cc1ccc(N3CCCC3)o1)CCC2)c1cncs1 | 1570 |
| O=C(Cc1ccccn1)Nc1cccc(-c2cccc(-c3nc4cc(C(F)(F)F)ccc4[nH]3)c2)c1 | 610 |
| Cc1cc(N2CCCCC2)nc2ccc(NC(=O)c3cncc(Br)c3)cc12 | 718 |
| NS(=O)(=O)c1cccc(Br)c1 | 888 |
| NS(=O)(=O)Cc1cccc(-c2ccnc3ccc(-c4cccc(S(N)(=O)=O)c4)cc23)c1 | 1560 |
| CCn1ccc2c(N3CCCS3(=O)=O)cc(C(=O)N[C@@H](Cc3ccccc3)[C@H](O)CNC(C)(C)c3cccc(OC)c3)cc21 | 41.6 |
| COc1ccc2ccccc2c1CON1C(=N)N=C(N)NC1(C)C | 28.8 |
| COc1ccc2c(c1)nc(CNC(=N)N)n2Cc1ccc(Cl)cc1 | 359 |

| SMILES | XC50 [nM] |
| --- | --- |
| Cc1cccc2nc(-c3cccc(-c4ccc(NC(=O)CCc5c[nH]cn5)cc4)c3)[nH]c12 | 302 |
| COc1ccc(Nc2nccc(N3CCC(NC(=O)C(C)c4ccc(Cl)cc4)C3)n2)cc1 (stereo unspecified) | 1010 |
| O=C(/C=C/c1ccc(Cl)c(Cl)c1)NCCCCCCN1CCCN(C(=O)Nc2cccc(C(F)(F)F)c2)CC1 | 793 |
| N=C(N)NC(=O)Nc1cc(Cl)c(Cl)c(C(F)(F)F)c1 | 611 |
| CC(Oc1ccc(Cl)cc1)C(=O)Nc1cc(C(F)(F)F)ccc1N1CCOCC1 (stereo unspecified) | 532 |
| CN(C)CCCNCc1ccc(-c2ccc(CNCCc3ccccc3)cc2)cc1 | 994 |
| O=C(NC1CC1)c1cnc(N2CCC(Oc3ccc(Cl)cc3)CC2)c(Cl)c1 | 1090 |
| COc1ccc(CNC(=O)c2cnc3c(O)cccc3c2Nc2cccc(NC(=O)c3ccc(F)cc3)c2)cc1 | 996 |
| OC1(Cc2ccccc2)CCN(Cc2cccc(-c3c[nH]c4nc(NC5CCCC5)ncc34)c2)CC1 | 929 |
| CCN(CCCN1CCCCC1)c1cc(C)nc(Nc2cc(C)ccc2C)n1 | 664 |
| Cc1cc(F)ccc1N(c1nc(-c2cc(Cl)ccc2Cl)cs1)C1CCNC1 (stereo unspecified) | 1010 |
| O=C(c1cc(-c2cccs2)n[nH]1)N1CCN(S(=O)(=O)c2ccc(Cl)cc2)CC1 | 292 |
| CCOc1ccc(/C=C/C(=O)Nc2cccc3c2CCN(C)C3)cc1 | 1110 |
| OC(CNC1CCCCC1)c1ccc(Cl)c(Cl)c1 (stereo unspecified) | 698 |
| COc1ccc(CNCc2cccc(-c3ccc(-c4nc5cccc(C)c5[nH]4)cc3)c2)cc1 | 237 |
| CCC(=Cc1cccc([N+](=O)[O-])c1)C(=O)NCC1CCN(c2nc3cc(OC)c(OC)cc3c(=N)[nH]2)CC1 | 236 |
| Cc1cccc(-c2cccc(CNc3nc(NCCc4ccc(O)cc4)nc(N4CCNCC4)n3)c2)c1 | 1190 |
| CCCN(Cc1ccc(C)cc1)Cc1cc(=O)c2cc(Cl)ccc2[nH]1 | 1050 |
| CO/C(=C\C=C\c1cc2cc(Cl)c(Cl)cc2[nH]1)C(=O)NCCCN(C)CCN(C)c1ccccc1 | 828 |
| COc1ccc(Nc2cc(C)nc(Nc3ccc(NC(C)=O)cc3)n2)cc1 | 865 |
| CC(=O)c1ccc(N2CCN(CCC3(c4ccc(Cl)c(Cl)c4)COCN(C(=O)c4ccccc4)C3)CC2)cc1 (stereo unspecified) | 925 |
| CCCC(C)Nc1nc(C)cc(N[C@@H](Cc2ccccc2)C(=O)NCc2cccc(F)c2)n1 (stereo partly specified) | 882 |
| Cc1c(C2CCN(CCCCNC(=O)c3ccc(-c4ccc(C#N)cc4)cc3)CC2)c2ccccc2n1CCO | 995 |
| CN(C)CCN(C)Cc1cccc(-c2cccc(NC(=O)c3cccc(C#N)c3)c2)c1 | 873 |

| SMILES | XC50 [nM] |
| --- | --- |
| O=C(Nc1cccc(-c2ccc(-c3nc4cc(C(F)(F)F)ccc4[nH]3)s2)c1)c1ccncc1 | 681 |
| COc1ccc(OC)c(C(O)C(C)NCc2cc(Cl)ccc2O)c1 (stereo unspecified) | 382 |
| OCC1CCN(Cc2ccc(-c3ccc(-c4nc5cc(C(F)(F)F)ccc5[nH]4)s3)cc2)CC1 | 477 |
| CN(c1ccc(NC(=O)Nc2cc(C(C)(C)C)on2)cc1)c1ccnc(NCCOC(=O)Nc2cc(C(C)(C)C)on2)n1 | 752 |
| N#Cc1cccc(NC(=O)C2=C(CCc3ccc4c(c3)OCO4)NC(=O)NC2c2cccc(C#N)c2)c1 (stereo unspecified) | 834 |
| CCOC(=O)/C(=N\OC(C)(C)C(=O)NCc1ccc(O)c(O)c1)c1csc(NC(c2ccccc2)(c2ccccc2)c2ccccc2)n1 | 170 |
| COc1cc(-c2nc(-c3ccccc3)c(-c3ccccc3)[nH]2)cc(OC)c1O | 774 |
| NC(=O)c1cc2nc(Nc3ccc(F)cc3)nc(NC3CCC3)c2[nH]1 | 195 |
| Cc1[nH]c(C)c(-c2ccc(-c3cccc(Cl)c3)nc2)c(=O)c1Cl | 186 |
| CCn1ccc2c(N3CCCC3=O)cc(C(=O)N[C@@H](Cc3ccccc3)[C@H](O)CNC(C)(C)CCCC(C)C)cc21 | 347 |
| CS(=O)(=O)Cc1ccc(Nc2nccc(-c3c(-c4cccc(NC(=O)C5CCCCC5)c4)nn4ncccc34)n2)cc1 | 201 |
| Oc1ccc(CCCNc2nc(NCc3cccc4ccccc34)nc(N3CCNCC3)n2)cc1 | 808 |
| O=c1cc(NCCCNC2CCOc3c(Cl)cccc32)[nH]c2ccccc12 (stereo unspecified) | 832 |
| CCNc1cc(C(=O)N[C@@H](Cc2ccccc2Cl)[C@H](O)CNC2CCCCC2)cc(N2CCCCS2(=O)=O)c1 | 803 |
| COc1ccc(C(=O)O)cc1OCc1ccccc1 | 819 |
| O=C(NC1CCCCN(Cc2ccccc2O)C1)c1ccc(Cl)c(Cl)c1 (stereo unspecified) | 747 |
| COc1ccc2nc3cc(Cl)ccc3c(NCCCCNc3c4ccc(Cl)cc4nc4ccc(OC)cc34)c2c1 | 160 |
| O=C(CCC1CCCCC1=O)c1ccccc1 (stereo unspecified) | 766 |
| CCc1ccc(C2CCN(CCCCNC(=O)c3ccc(-c4ccc(C#N)cc4)cc3)CC2)c(OCCO)c1 | 938 |
| CCN(CC)CCCn1c(N)c(-c2nc3ccccc3[nH]2)c2nc(C#N)c(C#N)nc21 | 267 |
| O=c1cc(N2CCCNCC2)c(Cl)nn1Cc1ccc(NS(=O)(=O)c2ccc(Oc3ccccc3)cc2)cc1 | 800 |
| CC(C)Cc1cnc2nc(N)nc(N)c2c1 | 491 |
| Clc1ccc2nc(-c3cccnc3)[nH]c2c1 | 38.4 |
| CC1(C)NC(N)=NC(=N)N1OCCCOc1cc(Cl)ccc1Cl | 3.2 |
